Key:
Assay type in all cases: biochemical
HpDTC1 [1] = molecular target: T1, HpDTC1 (Calohypnum plumiforme, UniProt A0A173M1U8, D394G/D395G); experiment: GC-MS of product, co-incubation with OsCPS4; conditions: syn-CDP formed in situ from GGDP by OsCPS4; type A activity; product syn-pimara-7,15-diene
T1 construct: His6-tag, pCold I, E. coli M-15

HpDTC1 [2] = molecular target: T2, HpDTC1 (Calohypnum plumiforme, UniProt A0A173M1U8); experiment: GC-MS of reaction product; conditions: product syn-pimara-7,15-diene
T2 construct: His6-tag, pCold I, E. coli M-15

OsCPS4 = molecular target: T3, OsCPS4 (Oryza sativa, UniProt Q0JF02); experiment: GC-MS of product after dephosphorylation; conditions: product syn-CDP, detected as syn-copalol after calf intestinal alkaline phosphatase
T3 construct: gene CPS4; enzyme preparation not described in main text
T3 sequence (Q0JF02 48-767): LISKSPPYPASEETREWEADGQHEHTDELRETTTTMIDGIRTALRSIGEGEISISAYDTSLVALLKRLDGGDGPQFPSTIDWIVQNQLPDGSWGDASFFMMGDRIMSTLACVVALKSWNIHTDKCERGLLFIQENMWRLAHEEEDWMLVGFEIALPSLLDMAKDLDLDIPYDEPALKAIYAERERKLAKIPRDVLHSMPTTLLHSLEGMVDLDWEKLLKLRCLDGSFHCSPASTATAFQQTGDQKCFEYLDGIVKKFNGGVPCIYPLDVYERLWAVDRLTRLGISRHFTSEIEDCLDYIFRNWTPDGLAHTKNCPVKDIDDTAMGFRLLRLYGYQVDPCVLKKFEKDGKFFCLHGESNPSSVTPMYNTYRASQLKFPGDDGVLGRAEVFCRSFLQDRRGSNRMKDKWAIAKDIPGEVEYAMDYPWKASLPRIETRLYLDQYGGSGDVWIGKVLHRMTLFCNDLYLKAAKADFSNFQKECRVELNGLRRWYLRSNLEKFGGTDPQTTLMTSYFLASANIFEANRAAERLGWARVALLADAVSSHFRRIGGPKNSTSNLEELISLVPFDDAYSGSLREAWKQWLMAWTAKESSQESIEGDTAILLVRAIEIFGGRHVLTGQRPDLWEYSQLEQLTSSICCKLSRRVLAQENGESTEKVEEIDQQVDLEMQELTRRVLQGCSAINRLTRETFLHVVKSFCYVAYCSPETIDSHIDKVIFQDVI

T1 sequence (A0A173M1U8 entry or part of it D394G/D395G): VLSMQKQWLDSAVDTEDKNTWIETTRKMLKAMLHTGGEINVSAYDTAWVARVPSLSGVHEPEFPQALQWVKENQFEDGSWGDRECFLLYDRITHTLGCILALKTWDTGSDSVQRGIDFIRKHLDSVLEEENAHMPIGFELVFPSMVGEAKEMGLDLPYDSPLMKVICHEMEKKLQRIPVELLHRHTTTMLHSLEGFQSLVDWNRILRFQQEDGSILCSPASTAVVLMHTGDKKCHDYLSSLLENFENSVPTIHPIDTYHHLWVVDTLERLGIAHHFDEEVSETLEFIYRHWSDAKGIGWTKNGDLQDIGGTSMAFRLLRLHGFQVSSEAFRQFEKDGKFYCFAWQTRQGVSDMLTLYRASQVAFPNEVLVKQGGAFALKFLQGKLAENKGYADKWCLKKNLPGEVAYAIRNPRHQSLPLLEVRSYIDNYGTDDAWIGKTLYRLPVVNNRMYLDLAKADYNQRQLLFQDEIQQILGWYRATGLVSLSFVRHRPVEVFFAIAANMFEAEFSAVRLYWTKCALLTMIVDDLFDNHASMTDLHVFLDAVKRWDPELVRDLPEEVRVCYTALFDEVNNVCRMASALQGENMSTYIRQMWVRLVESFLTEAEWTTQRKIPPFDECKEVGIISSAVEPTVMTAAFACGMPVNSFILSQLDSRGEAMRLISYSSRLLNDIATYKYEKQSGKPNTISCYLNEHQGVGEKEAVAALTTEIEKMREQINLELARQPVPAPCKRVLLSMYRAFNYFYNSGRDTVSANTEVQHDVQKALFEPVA
T2 sequence (A0A173M1U8 entry or part of it): as the sequence (A0A173M1U8 entry or part of it D394G/D395G) above, with G309D, G310D counted along it

C=C1CC[C@H]2C(C)(C)CCC[C@]2(C)[C@@H]1CC/C(C)=C/COP(=O)(O)OP(=O)(O)O [syn-CDP]
GC-MS of product, co-incubation with OsCPS4 (HpDTC1 [1]): Co-incubation with OsCPS4 and the type B mutant of HpDTC1 (DIGG) complemented the impaired

CC(C)=CCC/C(C)=C/CC/C(C)=C/CC/C(C)=C/COP(=O)(O)OP(=O)(O)O [GGDP]
GC-MS of reaction product (HpDTC1 [2]): used for the enzyme assay using GGDP as a substrate | GC-MS of product after dephosphorylation (OsCPS4): syn-copalol derived from syn-CDP, product of OsCPS4

Source: publication PMC4853780, “HpDTC1, a Stress-Inducible Bifunctional Diterpene Cyclase Involved in Momilactone Biosynthesis, Functions in Chemical Defence in the Moss Hypnum plumaeforme” (Scientific Reports, 2016)
